Data from US6867192B1, “Compounds useful in the treatment of inflammatory diseases” (priority 1998, dated 2005).

Target: T1, integrin VLA-4, expressed on the Jurkat J6 (human lymphoblast cell line) cell membrane with VCAM-1 (Homo sapiens, UniProt P05556+P13612)
T1 construct: integrin VLA-4, expressed on the Jurkat J6 (human lymphoblast cell line) cell membrane; endogenous in cells; host or cells: Jurkat J6 cells (integrin). zzVCAM-1 was made in house in Drosophila melanogaster S2 cells
Assay: Jurkat J6/VCAM-1 adhesion assay
Type: cell-based
Conditions: Jurkat J6 cell adhesion to VCAM-1, 1 mM MnCl2; mean of n experiments
In short: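 Jurkat J6 cells loaded with BCECF-AM were added with compound in HBSS with 1 mM MnCl2 to plates coated with IgG-captured zzVCAM-1 (seven-domain, S2-expressed) and left to adhere for 30 min at 37 °C. After washing, fluorescence was read. pIC50 came from a four-parameter fit between no compound and 2 mM EDTA.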

T1 sequence (P13612 34-1032): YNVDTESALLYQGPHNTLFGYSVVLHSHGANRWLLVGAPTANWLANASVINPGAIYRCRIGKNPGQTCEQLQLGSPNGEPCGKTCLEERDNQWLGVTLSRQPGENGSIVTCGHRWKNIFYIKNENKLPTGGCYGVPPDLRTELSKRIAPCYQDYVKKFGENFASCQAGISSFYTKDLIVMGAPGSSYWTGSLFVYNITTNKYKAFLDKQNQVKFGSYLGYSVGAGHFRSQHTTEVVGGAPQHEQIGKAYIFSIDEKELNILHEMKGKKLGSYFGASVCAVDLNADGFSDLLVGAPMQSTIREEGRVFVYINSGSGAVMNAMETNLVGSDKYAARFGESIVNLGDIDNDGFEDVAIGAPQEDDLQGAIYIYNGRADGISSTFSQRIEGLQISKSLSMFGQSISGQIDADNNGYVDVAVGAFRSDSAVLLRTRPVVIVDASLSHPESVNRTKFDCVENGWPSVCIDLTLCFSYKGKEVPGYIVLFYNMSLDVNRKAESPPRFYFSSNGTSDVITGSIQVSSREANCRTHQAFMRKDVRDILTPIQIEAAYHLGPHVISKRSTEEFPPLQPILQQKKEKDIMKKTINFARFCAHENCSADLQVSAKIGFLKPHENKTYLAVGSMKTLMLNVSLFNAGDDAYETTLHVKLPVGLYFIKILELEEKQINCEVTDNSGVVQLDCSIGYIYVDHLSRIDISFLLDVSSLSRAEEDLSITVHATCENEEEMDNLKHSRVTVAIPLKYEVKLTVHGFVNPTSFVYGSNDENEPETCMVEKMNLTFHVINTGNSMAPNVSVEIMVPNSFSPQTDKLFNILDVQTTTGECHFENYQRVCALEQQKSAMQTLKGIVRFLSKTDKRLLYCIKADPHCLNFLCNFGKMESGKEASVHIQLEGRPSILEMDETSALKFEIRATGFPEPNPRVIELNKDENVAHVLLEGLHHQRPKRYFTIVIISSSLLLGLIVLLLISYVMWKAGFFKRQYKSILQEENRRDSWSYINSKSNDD
T1 sequence (P05556 21-798): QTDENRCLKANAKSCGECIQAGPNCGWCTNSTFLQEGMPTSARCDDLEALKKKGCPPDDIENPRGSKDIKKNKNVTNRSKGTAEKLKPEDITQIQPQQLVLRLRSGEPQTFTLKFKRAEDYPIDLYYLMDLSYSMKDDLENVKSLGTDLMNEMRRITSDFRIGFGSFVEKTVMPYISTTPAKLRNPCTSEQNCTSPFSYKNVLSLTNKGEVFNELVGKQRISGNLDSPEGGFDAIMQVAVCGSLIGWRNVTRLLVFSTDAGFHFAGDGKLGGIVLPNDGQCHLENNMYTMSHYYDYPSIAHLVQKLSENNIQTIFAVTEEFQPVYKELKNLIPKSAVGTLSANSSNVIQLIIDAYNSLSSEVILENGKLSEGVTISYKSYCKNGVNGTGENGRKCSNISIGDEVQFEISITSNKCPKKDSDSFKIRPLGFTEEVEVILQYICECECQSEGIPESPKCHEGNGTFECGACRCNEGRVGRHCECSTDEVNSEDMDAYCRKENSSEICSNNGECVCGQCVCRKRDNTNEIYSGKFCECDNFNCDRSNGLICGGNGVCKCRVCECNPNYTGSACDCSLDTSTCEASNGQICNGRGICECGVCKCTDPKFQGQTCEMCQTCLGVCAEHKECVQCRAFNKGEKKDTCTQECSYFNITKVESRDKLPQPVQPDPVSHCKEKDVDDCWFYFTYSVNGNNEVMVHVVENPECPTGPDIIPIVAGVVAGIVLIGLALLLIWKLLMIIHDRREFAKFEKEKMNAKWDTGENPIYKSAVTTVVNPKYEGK

Row | Compound | IC50
1 | CC(C)C[C@H](NC(=O)COc1ccccc1C(C)(C)C)C(=O)N[C@@H](Cc1ccc(OC(=O)N2CCN(C(=O)c3ccccc3)CC2)cc1)C(=O)O [Example 20, (2S)-3-(4-{[(4-Benzoyl-1-piperazinyl)carbonyl]oxy}phenyl)-2-{[(2S)-2-({2-[2-(tert-butyl)phenoxy]acetyl}amino)-4-methylpentanoyl]amino}propanoic acid] | 14.8 nM
2 | Cc1ccccc1OCC(=O)N[C@@H](CC(C)C)C(=O)N[C@@H](Cc1ccc(OC(=O)N2CCN(C(=O)c3ccccc3)CC2)cc1)C(=O)O [Example 21, (2S)-3-(4-{[(4-Benzoyl-1-piperazinyl)carbonyl]oxy}phenyl)-2-[((2S)-4-methyl-2-{[2-(2-methylphenoxy)acetyl]amino}pentanoyl)amino]propanoic acid] | 3.89 nM
3 | CC(C)C[C@H](NC(=O)COc1ccccc1I)C(=O)N[C@@H](Cc1ccc(OC(=O)N2CCOCC2)cc1)C(=O)O [Example 23, (2S)-2-[((2S)-2-{[2-(2-Iodophenoxy)acetyl]amino}-4-methylpentanoyl)amino]-3-{4-[(4-morpholinylcarbonyl)oxy]phenyl}propanoic acid] | 4.47 nM
4 | Cc1ccccc1OCC(=O)N[C@@H](CC(C)C)C(=O)N[C@@H](Cc1ccc(OC(=O)N2CCC(C(N)=O)CC2)cc1)C(=O)O [Example 27, (2S)-3-[4-({[4-(Aminocarbonyl)-1-piperidinyl]carbonyl}oxy)phenyl]-2-[((2S)-4-methyl-2-{[2-(2-methylphenoxy)acetyl]amino}pentanoyl)amino]propanoic acid] | 2.82 nM
5 | CC(C)C[C@H](NC(=O)c1cccc2c1oc1ccccc12)C(=O)N[C@@H](Cc1ccc(OC(=O)N2CCC(C(N)=O)CC2)cc1)C(=O)O [Example 28, (2S)-3-[4-({[4-(Aminocarbonyl)-1-piperidinyl]carbonyl}oxy)phenyl]-2-({(2S)-2-[(dibenzo[b,d]furan-4-ylcarbonyl)amino]-4-methylpentanoyl}amino)propanoic acid] | 3.47 nM

The remaining compounds from weak to strong by IC50, led by results:

Row | IC50 | Compound
6 | 6.03 nM | CC(C)C[C@H](NC(=O)COc1ccccc1C(C)(C)C)C(=O)N[C@@H](Cc1ccc(OC(=O)N2CCOCC2)cc1)C(=O)O [Example 24, (2S)-2-{[(2S)-2-({2-[2-(Tert-butyl)phenoxy]acetyl}amino)-4-methylpentanoyl]amino}-3-{4-[(4-morpholinylcarbonyl)oxy]phenyl}propanoic acid]
7 | 3.24 nM | CC(=O)N1CCN(C(=O)Oc2ccc(C[C@H](NC(=O)[C@H](CC(C)C)NC(=O)COc3ccccc3C(C)(C)C)C(=O)O)cc2)CC1 [Example 16, (2S)-3-(4-{[(4-Acetyl-1-piperazinyl)carbonyl]oxy}phenyl)-2-{[(2S)-2-({2-[2-(tert-butyl)phenoxy]acetyl}amino)-4-methylpentanoyl]amino}propanoic acid]
8 | 2.57 nM | CC(=O)N1CCN(C(=O)Oc2ccc(C[C@H](NC(=O)[C@H](CC(C)C)NC(=O)COc3ccccc3C)C(=O)O)cc2)CC1 [Example 17, (2S)-3-(4-{[(4-Acetyl-1-piperazinyl)carbonyl]oxy}phenyl)-2-[((2S)-4-methyl-2-{[2-(2-methylphenoxy)acetyl]amino}pentanoyl)amino]propanoic acid]
